Experimental data: patent US9434725B2, “5-azaindazole compounds and methods of use” (priority 2012, dated 2016)
Counter-ions that a name gives are not always drawn. Like-named read-outs stand apart in the source and are kept apart here.

Assays:
PIM1 = PIM1 (Homo sapiens (Human), UniProt P11309); test: biochemical; format: biochemical; conditions: 10 μM ATP, 90 min, room temperature; read-out: PIM1 LC3K (KI)
How it was run: (§1)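 Pim-specific fluorescent peptide phosphorylated in 10 mM HEPES pH 7.2, 10 mM MgCl2, 0.01% Tween 20, 2 mM DTT for 90 min at room temperature, then stopped with EDTA. Product and substrate separated by microfluidic mobility shift; Ki derived from substrate conversion.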

PIM3 = PIM3 (Homo sapiens (Human), UniProt Q86V86); test: Pim kinase binding activity, Caliper LC3000 microfluidic peptide phosphorylation assay, PIM3; format: biochemical; conditions: 10 μM ATP, 90 min, room temperature; read-out: PIM3 LC3K (KI)
How it was run: as §1

BaF3 PIM1 cells = test: In vitro cell proliferation potency assay (Cell Titer Glo), BaF3 PIM1 cells; format: cell-based, murine; conditions: read-out: Prolif BaF3_PIM 1 (IC50)
Description: (§2) BaF3 parental line was obtained from the DSMZ repository. BaF3 lines transfected with PIM1 or PIM2 were generated. Mouse IL-3 was purchased from R&D Systems. G418 was purchased from Clontech. Media for BaF3 parental line contained RPMI, 10% FBS, 2 mM L-Glutamine, 2 ng/mL mIL-3. Media for BaF3 PIM1 & 2 lines contained RPMI, 10% FBS, 2 mM L-Glutamine, […]. Media for MM1.S (multiple myeloma cells) line contained RPMI, 10% FBS, 2 mM L-Glutamine.
(§3) BaF3, a murine interleukin-3 dependent pro-B cell line, parental cells, BaF3 PIM1 cells, BaF3 PIM2 cells, and MM1.S (multiple myeloma) cells were seeded at 2 k/well, 5 k/well, 5 k/well, and 10 k/well respectively, in a 384-well plate, at 45 μL/well. Test compound was added at 5 μL/well. BaF3 cells (parental and transfected) were incubated overnight, while MM1.S cells were incubated for 72 hours at 37° C., 5% CO2. CELL TITER GLO® Reagent (Promega) was added at 50 μL/well, the plates were incubated for 30 minutes, and their luminescence read on an HT Analyst. IC50/EC50 values for the test compound were calculated.

[1] = tested on: MM1.S (multiple myeloma) cells; test: In vitro cell proliferation potency assay (Cell Titer Glo), MM1.S cells; format: cell-based; conditions: read-out: Prolif MM1S ATP (EC50)
Description: as §2, §3

PIM2 = PIM2 (Homo sapiens (Human), UniProt Q9P1W9); test: Pim kinase binding activity, Caliper LC3000 microfluidic peptide phosphorylation assay, PIM2; format: biochemical; conditions: 10 μM ATP, 90 min, room temperature; read-out: PIM2 LC3K (KI)
Chain of PIM2 (Q9P1W9 whole entry): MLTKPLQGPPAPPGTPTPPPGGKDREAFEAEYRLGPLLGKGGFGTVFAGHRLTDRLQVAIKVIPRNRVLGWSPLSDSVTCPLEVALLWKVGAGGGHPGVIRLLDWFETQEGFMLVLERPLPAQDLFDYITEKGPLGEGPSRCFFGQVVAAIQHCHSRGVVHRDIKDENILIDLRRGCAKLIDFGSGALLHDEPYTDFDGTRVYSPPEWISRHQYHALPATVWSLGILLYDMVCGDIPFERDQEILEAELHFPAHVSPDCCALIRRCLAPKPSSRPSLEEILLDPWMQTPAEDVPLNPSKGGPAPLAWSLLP
How it was run: as §1

[2] = Mus musculus, BaF3, BaF3 cells transfected with PIM1, incubated overnight
[3] = Homo sapiens, MM1.S cells, 72 hours
[4] = Homo sapiens, MM1.S, 72 h, MM1.S cells, 72 hours
[5] = BaF3 cells transfected with PIM1, incubated overnight

Chain of PIM1 (P11309 whole entry): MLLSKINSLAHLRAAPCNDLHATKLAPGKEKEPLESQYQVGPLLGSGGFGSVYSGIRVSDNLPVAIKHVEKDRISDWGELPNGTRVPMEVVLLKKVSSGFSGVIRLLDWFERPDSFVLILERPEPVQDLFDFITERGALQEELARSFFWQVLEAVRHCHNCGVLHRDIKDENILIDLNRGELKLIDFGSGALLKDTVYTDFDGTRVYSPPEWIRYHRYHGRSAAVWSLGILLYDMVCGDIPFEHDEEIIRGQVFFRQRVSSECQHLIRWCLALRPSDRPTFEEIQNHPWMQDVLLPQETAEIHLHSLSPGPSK

Ki (PIM1) [nM]	Ki (PIM3) [nM]	IC50 (BaF3 PIM1 cells; [2]) [nM]	EC50 [1, 3] [nM]	Ki (PIM2) [nM]	EC50 [1, 4] [nM]	IC50 (BaF3 PIM1 cells; [5]) [nM]	EC50 ([1]; MM1.S cells, 72 hours) [nM]	Structure (SMILES)	EC50 ([1]; Homo sapiens, MM1.S, 72 h) [nM]
0.0212	0.013	220	508	0.134				COc1ccc(-n2ncc3cnc(-c4cncc(C)n4)cc32)nc1N1CCC[C@H](N)C1 [Compound 186, (S)-1-(3-methoxy-6-(6-(6-methylpyrazin-2-yl)-1H-pyrazolo[4,3-c]pyridin-1-yl)pyridin-2-yl)piperidin-3-amine]	
0.058	0.048	240		0.678	4700			CCc1cncc(-c2cc3c(cn2)cnn3-c2cccc(N3CCNCC3)n2)n1 [Compound 149, 6-(6-ethylpyrazin-2-yl)-1-(6-piperazin-1-yl-2-pyridyl)pyrazolo[4,3-c]pyridine]	
0.256	0.144	425	10900	1.43				COC1(c2cccc(-n3ncc4cnc(-c5cncc(C)n5)cc43)n2)CCCNC1 (centres unmarked) [Compound 295, 1-(6-(3-methoxypiperidin-3-yl)pyridin-2-yl)-6-(6-methylpyrazin-2-yl)-1H-pyrazolo[4,3-c]pyridine]	
0.514		772		2.37	9300			Cc1cncc(-c2cc3c(cn2)cnn3-c2cccc(C3(F)CCCNC3)n2)n1 (centres unmarked) [Compound 294, 1-(6-(3-fluoropiperidin-3-yl)pyridin-2-yl)-6-(6-methylpyrazin-2-yl)-1H-pyrazolo[4,3-c]pyridine]	
0.189				2.45		1400	4900	Cc1cncc(-c2cc3c(cn2)cnn3-c2cccc(C3CNCCC3(F)F)n2)n1 (single isomer, unassigned) [Compound 271]	
0.018	0.014	278		0.142	1200			Cc1cncc(-c2cc3c(cn2)cnn3-c2ccc(C)c(N3CCC[C@H](N)C3)n2)n1 [Compound 205, (S)-1-(3-methyl-6-(6-(6-methylpyrazin-2-yl)-1H-pyrazolo[4,3-c]pyridin-1-yl)pyridin-2-yl)piperidin-3-amine]	
0.06	0.054	212	574	0.394				Cc1cncc(-c2cc3c(cn2)cnn3-c2ccc(CO)c(N3CCC[C@H](N)C3)n2)n1 [Compound 218, (S)-(2-(3-aminopiperidin-1-yl)-6-(6-(6-methylpyrazin-2-yl)-1H-pyrazolo[4,3-c]pyridin-1-yl)pyridin-3-yl)methanol]	
0.078	0.032			1.39	2200			Cn1cc(-c2cc3c(cn2)cnn3-c2cccc(N3CCNC[C@H](O)C3)n2)cn1 [Compound 231, (S)-1-(6-(6-(1-Methyl-1H-pyrazol-4-yl)-1H-pyrazolo[4,3-c]pyridin-1-yl)pyridin-2-yl)-1,4-diazepan-6-ol]	
	0.083			4.59	2700			CCc1cncc(-c2cc3c(cn2)cnn3-c2cccc(N3CCNC[C@@H](O)C3)n2)c1 (single isomer, unassigned) [Compound 122]	
	0.175			1.01	2300			FC(F)(F)Cn1cc(-c2cc3c(cn2)cnn3-c2cccc(N3CCCNCC3)n2)cn1 [Compound 154, 1-(6-(1,4-Diazepan-1-yl)pyridin-2-yl)-6-(1-(2,2,2-trifluoroethyl)-1H-pyrazol-4-yl)-1H-pyrazolo[4,3-c]pyridine]	
0.044		112		2.28	6400			CCNc1cncc(-c2cc3c(cn2)cnn3-c2cccc(N3CCNCC3)n2)n1 [Compound 285, N-ethyl-6-(1-(6-(piperazin-1-yl)pyridin-2-yl)-1H-pyrazolo[4,3-c]pyridin-6-yl)pyrazin-2-amine]	
	0.078			3.37	5000			Cc1cncc(-c2cc3c(cn2)cnn3-c2cccc(N3CCCNCC3)n2)c1 [Compound 141, 1-(6-(1,4-diazepan-1-yl)pyridin-2-yl)-6-(5-methylpyridin-3-yl)-1H-pyrazolo[4,3-c]pyridine]	
1.6	0.796		11700	19.4				Cc1cncc(-c2cc3c(cn2)cnn3-c2ccc3c(n2)CC(CN)CO3)n1 (centres unmarked) [Compound 292, (6-(6-(6-methylpyrazin-2-yl)-1H-pyrazolo[4,3-c]pyridin-1-yl)-3,4-dihydro-2H-pyrano[3,2-b]pyridin-3-yl)methanamine]	
0.023	0.026		2500	0.664				Nc1cncc(-c2cc3c(cn2)cnn3-c2cccc(N3CCCNCC3)n2)n1 [Compound 247, 6-(1-(6-(1,4-diazepan-1-yl)pyridin-2-yl)-1H-pyrazolo[4,3-c]pyridin-6-yl)pyrazin-2-amine]	
	0.081			3.32	8600			CCn1cncc(-c2cc3c(cn2)cnn3-c2cccc(N3CCNCC3)n2)c1=O [Compound 151, 3-ethyl-5-[1-(6-piperazin-1-yl-2-pyridyl)pyrazolo[4,3-c]pyridin-6-yl]pyrimidin-4-one]	
0.067				0.234		194	1200	Cc1cncc(-c2cc3c(cn2)cnn3-c2cccc(C3CNCCC3(F)F)n2)n1 (single isomer, unassigned) [Compound 272]	
	0.05			1.16	2600			c1cc(N2CCNCC2)nc(-n2ncc3cnc(-c4cnccn4)cc32)c1 [Compound 144, 1-(6-piperazin-1-yl-2-pyridyl)-6-pyrazin-2-yl-pyrazolo[4,3-c]pyridine]	
	0.019		1900	0.333				CCc1cncc(-c2cc3c(cn2)cnn3-c2cccc(N3CCCNCC3)n2)n1 [Compound 150, 1-[6-(1 4-diazepan-1-yl)-2-pyridyl]-6-(6-ethylpyrazin-2-yl)pyrazolo[4 3-c]pyridine]	
	0.806			4.74	5000			Cc1cncc(-c2cc3c(cn2)cnn3-c2cccc(N3CC[C@@H](N)C3)n2)n1 [Compound 168, (3R)-1-[6-[6-(6-methylpyrazin-2-yl)pyrazolo[4,3-c]pyridin-1-yl]-2-pyridyl]pyrrolidin-3-amine]	
	0.032			0.228	2400			OCC#Cc1cncc(-c2cc3c(cn2)cnn3-c2cccc(N3CCNCC3)n2)n1 [Compound 300, 3-(6-(1-(6-(piperazin-1-yl)pyridin-2-yl)-1H-pyrazolo[4,3-c]pyridin-6-yl)pyrazin-2-yl)prop-2-yn-1-ol]	
	0.109			1.49	3500			N#CCn1cc(-c2cc3c(cn2)cnn3-c2cccc(N3CCCNCC3)n2)cn1 [Compound 155, 2-(4-(1-(6-(1,4-Diazepan-1-yl)pyridin-2-yl)-1H-pyrazolo[4,3-c]pyridin-6-yl)-1H-pyrazol-1-yl)acetonitrile]	

Structure (SMILES)	Ki (PIM1) [nM]	Ki (PIM3) [nM]	IC50 (BaF3 PIM1 cells; [2]) [nM]	EC50 [1, 3] [nM]	Ki (PIM2) [nM]	EC50 [1, 4] [nM]	IC50 (BaF3 PIM1 cells; [5]) [nM]	EC50 ([1]; MM1.S cells, 72 hours) [nM]	EC50 ([1]; Homo sapiens, MM1.S, 72 h) [nM]
OCc1cncc(-c2cc3c(cn2)cnn3-c2cccc(N3CCNCC3)n2)n1 [Compound 273, (6-(1-(6-(piperazin-1-yl)pyridin-2-yl)-1H-pyrazolo[4,3-c]pyridin-6-yl)pyrazin-2-yl)methanol dihydrochloride]	0.117	0.036	629		2.63				5500
FC(F)c1cncc(-c2cc3c(cn2)cnn3-c2cccc(N3CCNCC3)n2)n1 [Compound 279, 6-(6-(difluoromethyl)pyrazin-2-yl)-1-(6-(piperazin-1-yl)pyridin-2-yl)-1H-pyrazolo[4,3-c]pyridine trifluoroacetate]	0.229	0.132	622	2300	3.99				
Cc1cncc(-c2cc3c(cn2)cnn3-c2cccc(N3CCCC4(CN(C=O)C4)C3)n2)n1 [Compound 291, 6-(6-(6-(6-methylpyrazin-2-yl)-1H-pyrazolo[4,3-c]pyridin-1-yl)pyridin-2-yl)-2,6-diazaspiro[3.5]nonane-2-carbaldehyde]	4.41	3.42			40.9				> 25000
Cc1cncc(-c2cc3c(cn2)cnn3-c2cccc(OC3CCCC(N)C3)n2)n1 (centres unmarked) [Compound 311, 3-(6-(6-(6-methylpyrazin-2-yl)-1H-pyrazolo[4,3-c]pyridin-1-yl)pyridin-2-yloxy)cyclohexanamine]	0.069	0.036	1000			5500			
